The record followed here is ChEMBL document CHEMBL1201862, “PubChem BioAssay data set” (2004).

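A five-concentration, 48-hour dose response in 96-well plates underlies each endpoint, interpolated linearly between surrounding concentrations. GI50: concentration for 50% inhibition of growth.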 Active and inactive are the calls of the source. No stated cut-off is given here; in the data, active = GI50 up to about 1.1 µM and inactive = higher.

Some test systems named below: NCI-H460; MDA-MB-435; LOX IMVI; M14; U-251; SK-MEL-5; RPMI-8226; ACHN; MCF7; SK-MEL-2; OVCAR-8; SK-MEL-28; CAKI-1; 786-0; A498; SF-539; SK-OV-3; IGROV-1; SW-620; SNB-78.
Test in all cases: DTP human tumour cell line panel, 48 h

For orientation: GI50 means the concentration giving 50% growth inhibition.

For the molecule `CC[C@@]1(OC(=O)CN(C)C)C(=O)OCc2c1cc1n(c2=O)Cc2cc3ccccc3nc2-1`, the GI50 is 5.33 nM (active) in the experiment with NCI-H460; 194 nM (active) with MDA-MB-435; 19.8 nM (active) in the experiment on LOX IMVI; 52.5 nM (active) in the experiment on M14; 11.8 nM (active) in the experiment with U-251; 32.8 nM (active) with SK-MEL-5. Besides, the GI50 in the experiment on RPMI-8226 is 181 nM (active); with ACHN it was 8.75 nM (active); in the experiment with MCF7 it was 8.53 nM (active); in the experiment on SK-MEL-2, 701 nM (active); in the experiment on OVCAR-8 it was 59.6 nM (active); in the experiment on SK-MEL-28, 308 nM (active). Also, the GI50 in the experiment on CAKI-1 is 21.1 nM (active); in the experiment with 786-0, 25.9 nM (active); with A498 it was 205 nM (active); with SF-539, 11.1 nM (active); in the experiment on SK-OV-3, 71 nM (active); in the experiment on IGROV-1 it was 242 nM (active). The GI50 with SW-620 was 98 nM (active); in the experiment with SNB-78, 7670 nM (inactive).
